Experimental data taken from ChEMBL document CHEMBL5380848, “Novel Benzo Five-Membered Heterocycle Derivatives as P-Glycoprotein Inhibitors: Design, Synthesis, Molecular Docking, and Anti-Multidrug Resistance Activity” (J Med Chem, 2023).

Experiments:
[1] = biological target: ATP-dependent translocase ABCB1 (Homo sapiens, UniProt P08183); assay: Inhibition of P-gp-mediated multidrug resistance in doxorubicin-resistant human MCF7/ADR cells assessed as fold reversal of resistance by measuring doxorubicin IC50 incubated for 48 hrs by CCK-8 assay relative to doxorubicin IC50 in absence of compound; type: cell-based; conditions: nci-adr-res
NCI/ADR-RES = assay: Cytotoxicity against doxorubicin-resistant human MCF-7/ADR cells assessed as inhibition rate at 5 uM measured after […] hrs by CCK-8 assay relative to control; type: functional
MCF7 = assay: Cytotoxicity against human MCF7 cells assessed as inhibition rate at 5 uM measured after […] hrs by CCK-8 assay relative to control; type: functional

Sequence of ATP-dependent translocase ABCB1 (P08183 whole entry): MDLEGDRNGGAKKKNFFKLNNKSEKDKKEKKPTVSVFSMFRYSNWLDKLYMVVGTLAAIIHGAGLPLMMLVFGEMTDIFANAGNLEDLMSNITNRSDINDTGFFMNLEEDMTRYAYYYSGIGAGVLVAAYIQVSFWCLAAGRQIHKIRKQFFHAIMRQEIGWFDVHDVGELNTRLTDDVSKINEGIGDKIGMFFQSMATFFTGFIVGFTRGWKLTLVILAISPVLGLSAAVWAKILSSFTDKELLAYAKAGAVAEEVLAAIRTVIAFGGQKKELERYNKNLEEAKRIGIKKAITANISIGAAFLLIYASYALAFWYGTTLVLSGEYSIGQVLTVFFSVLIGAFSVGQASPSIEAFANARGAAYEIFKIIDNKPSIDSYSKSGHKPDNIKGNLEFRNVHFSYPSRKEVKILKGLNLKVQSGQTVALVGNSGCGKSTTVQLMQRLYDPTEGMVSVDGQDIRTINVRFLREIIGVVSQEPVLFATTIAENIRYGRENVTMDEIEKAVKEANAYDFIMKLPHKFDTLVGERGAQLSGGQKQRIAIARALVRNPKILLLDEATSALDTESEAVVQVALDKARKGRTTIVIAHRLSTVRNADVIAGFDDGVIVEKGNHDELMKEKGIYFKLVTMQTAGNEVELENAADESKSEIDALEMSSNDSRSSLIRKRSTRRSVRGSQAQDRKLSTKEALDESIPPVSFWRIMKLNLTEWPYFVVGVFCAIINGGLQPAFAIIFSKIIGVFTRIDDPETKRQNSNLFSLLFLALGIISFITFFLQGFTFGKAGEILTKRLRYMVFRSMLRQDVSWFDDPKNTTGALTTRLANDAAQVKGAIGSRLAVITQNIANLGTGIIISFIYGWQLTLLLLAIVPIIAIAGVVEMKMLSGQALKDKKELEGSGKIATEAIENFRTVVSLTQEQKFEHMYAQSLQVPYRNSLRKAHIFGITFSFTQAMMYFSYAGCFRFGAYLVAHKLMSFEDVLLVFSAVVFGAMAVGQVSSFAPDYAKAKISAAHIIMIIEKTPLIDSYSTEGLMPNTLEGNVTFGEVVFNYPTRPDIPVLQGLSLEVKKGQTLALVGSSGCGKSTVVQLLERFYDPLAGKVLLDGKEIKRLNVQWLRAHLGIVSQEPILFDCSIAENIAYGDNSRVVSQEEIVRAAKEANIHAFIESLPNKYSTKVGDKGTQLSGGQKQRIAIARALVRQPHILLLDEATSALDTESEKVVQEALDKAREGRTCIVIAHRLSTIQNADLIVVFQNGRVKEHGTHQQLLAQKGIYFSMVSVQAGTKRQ

| fold change (FC) [1] | Compound | inhibition at 5 µM (NCI/ADR-RES) [%] | inhibition at 5 µM (MCF7) [%] |
| --- | --- | --- | --- |
| 55.4 | COc1cc2c(cc1OC)CN(C(=O)c1cc3cc(-c4ccc(NC(=O)c5ccc(Cl)cc5)cc4)ccc3n1Cc1ccccc1)CC2 | 6.9 | 10.1 |
| 1 | COc1cccc2c1C(=O)c1c(O)c3c(c(O)c1C2=O)C[C@@](O)(C(=O)CO)C[C@@H]3O[C@H]1C[C@H](N)[C@H](O)[C@H](C)O1 [DOXORUBICIN] |  |  |
| 41.9 | COc1cc2c(cc1OC)CN(C(=O)c1cc3cc(-c4ccccc4[N+](=O)[O-])ccc3[nH]1)CC2 |  |  |
| 29.2 | COc1cc2c(cc1OC)CN(C(=O)c1cc3cc(-c4ccc(NC(=O)c5ccc(Cl)cc5)cc4)ccc3n1Cc1ccc(OC(F)(F)F)cc1)CC2 | 2.8 | 0.3 |
| 1021.3 | COc1cc2c(cc1OC)CN(C(=O)c1cc3cc(-c4ccc(NC(=O)c5cccc(F)c5)cc4)ccc3[nH]1)CC2 | 34.1 | 31.5 |
| 23 | COc1cc2c(cc1OC)CN(C(=O)c1cc3cc(-c4ccc(NC(=O)c5ccc(Oc6ccccc6)cc5)cc4)ccc3[nH]1)CC2 | 15.5 | 19 |
| 333 | CCOc1ccc(C(=O)Nc2ccc(-c3ccc4[nH]c(C(=O)N5CCc6cc(OC)c(OC)cc6C5)cc4c3)cc2)cc1 | 7.7 | 15.4 |
| 53.5 | COc1cc2c(cc1OC)CN(C(=O)c1cc3cc(-c4ccc(NC(=O)c5ccc(Cl)cc5)cc4)ccc3n1Cc1ccc(F)cc1)CC2 | 16.6 | 11.2 |
| 283.2 | COc1cc2c(cc1OC)CN(CCc1ccc(NC(=O)c3cc(OC)c(OC)cc3NC(=O)c3cnc4ccccc4c3)cc1)CC2 | 48.9 | 42.8 |
| 27.5 | COc1cc2c(cc1OC)CN(C(=O)c1cc3cc(-c4ccc(NC(=O)c5ccc(Cl)cc5)cc4)ccc3n1Cc1cccc(Cl)c1)CC2 | 0.1 | 1.3 |
| 36.1 | COc1cc2c(cc1OC)CN(C(=O)c1cc3cc(-c4ccc(NC(=O)c5ccc(Cl)cc5)cc4)ccc3n1Cc1ccccc1Br)CC2 | 17.1 | 18.2 |
| 17 | COc1cc2c(cc1OC)CN(C(=O)c1cc3cc(-c4ccccc4F)ccc3[nH]1)CC2 |  |  |
| 41.5 | COc1cc(Cn2c(C(=O)N3CCc4cc(OC)c(OC)cc4C3)cc3cc(-c4ccc(NC(=O)c5ccc(Cl)cc5)cc4)ccc32)cc(OC)c1 | 11.2 | 3 |
| 99.1 | COc1cc2c(cc1OC)CN(C(=O)c1cc3cc(-c4ccc(OC(F)(F)F)cc4)ccc3[nH]1)CC2 |  |  |
| 36.6 | COc1cc2c(cc1OC)CN(C(=O)c1cc3cc(-c4ccc(NC(=O)c5ccc(Cl)cc5)cc4)ccc3n1Cc1ccc(C)cc1)CC2 | 2.5 | 3.7 |
| 86.4 | COc1cc(OC)cc(-c2ccc3[nH]c(C(=O)N4CCc5cc(OC)c(OC)cc5C4)cc3c2)c1 |  |  |
| 146.3 | COc1cc2c(cc1OC)CN(C(=O)c1cc3cc(-c4ccc(NC(=O)c5ccccc5)cc4)ccc3[nH]1)CC2 | 11 | 15.5 |
| 33.6 | CCOc1ccc(-c2ccc3[nH]c(C(=O)N4CCc5cc(OC)c(OC)cc5C4)cc3c2)cc1 |  |  |
|  | C/C=C/C[C@@H](C)[C@@H](O)[C@H]1C(=O)N[C@@H](CC)C(=O)N(C)CC(=O)N(C)[C@@H](CC(C)C)C(=O)N[C@@H](C(C)C)C(=O)N(C)[C@@H](CC(C)C)C(=O)N[C@@H](C)C(=O)N[C@H](C)C(=O)N(C)[C@@H](CC(C)C)C(=O)N(C)[C@@H](CC(C)C)C(=O)N(C)[C@@H](C(C)C)C(=O)N1C [CYCLOSPORINE] | 24.5 |  |
| 16.5 | CCCOc1ccc(-c2ccc3[nH]c(C(=O)N4CCc5cc(OC)c(OC)cc5C4)cc3c2)cc1 |  |  |
| 15.1 | COc1cc2c(cc1OC)CN(C(=O)c1cc3cc(-c4ccccc4OC)ccc3[nH]1)CC2 |  |  |
| 88.3 | COc1cc2c(cc1OC)CN(C(=O)c1cc3cc(-c4cccc(OC)c4OC)ccc3[nH]1)CC2 |  |  |
| 55.8 | COc1cc2c(cc1OC)CN(C(=O)c1cc3cc(-c4ccc([N+](=O)[O-])cc4)ccc3[nH]1)CC2 |  |  |
| 41.4 | COc1cc2c(cc1OC)CN(C(=O)c1cc3cc(-c4ccc(C)cc4)ccc3[nH]1)CC2 |  |  |

| fold change (FC) [1] | Compound | inhibition at 5 µM (NCI/ADR-RES) [%] | inhibition at 5 µM (MCF7) [%] |
| --- | --- | --- | --- |
| 33.4 | COc1cc2c(cc1OC)CN(C(=O)c1cc3cc(-c4cccc(Cl)c4)ccc3[nH]1)CC2 |  |  |
| 34.9 | COc1cc2c(cc1OC)CN(C(=O)c1cc3cc(-c4ccc(N)cc4)ccc3[nH]1)CC2 |  |  |
|  | COc1ccc(CCN(C)CCCC(C#N)(c2ccc(OC)c(OC)c2)C(C)C)cc1OC (stereo not drawn) | 12.2 | 6.9 |
| 100.4 | COc1cc2c(cc1OC)CN(C(=O)c1cc3cc(-c4ccc(Cl)cc4)ccc3[nH]1)CC2 |  |  |
| 46.4 | COc1ccc(-c2ccc3[nH]c(C(=O)N4CCc5cc(OC)c(OC)cc5C4)cc3c2)cc1 |  |  |
| 33.4 | COc1cc2c(cc1OC)CN(C(=O)c1cc3cc(-c4ccc5c(c4)OCO5)ccc3[nH]1)CC2 |  |  |
|  | COc1cc2c(cc1OC)CN(C(=O)c1cc3cc(-c4ccc(NC(=O)c5ccc(OC(F)(F)F)cc5)cc4)ccc3[nH]1)CC2 | 53.8 | 46.7 |
| 51.3 | COc1cc2c(cc1OC)CN(C(=O)c1cc3cc(-c4ccc(F)cc4)ccc3[nH]1)CC2 |  |  |
| 108.7 | COc1ccc(OC)c(-c2ccc3[nH]c(C(=O)N4CCc5cc(OC)c(OC)cc5C4)cc3c2)c1 |  |  |
| 18.3 | CCCCOc1ccc(-c2ccc3[nH]c(C(=O)N4CCc5cc(OC)c(OC)cc5C4)cc3c2)cc1 |  |  |
| 24 | COc1cc2c(cc1OC)CN(C(=O)c1cc3cc(-c4ccc(OC(C)C)cc4)ccc3[nH]1)CC2 |  |  |
| 76.3 | COc1cc2c(cc1OC)CN(C(=O)c1cc3cc(-c4cccc([N+](=O)[O-])c4)ccc3[nH]1)CC2 |  |  |
| 19.9 | COc1cc2c(cc1OC)CN(C(=O)c1cc3cc(-c4cccc(F)c4)ccc3[nH]1)CC2 |  |  |
| 10 | COc1cc2c(cc1OC)CN(C(=O)c1cc3cc(-c4ccccc4)ccc3[nH]1)CC2 |  |  |
| 27.5 | COc1cc2c(cc1OC)CN(C(=O)c1cc3cc(-c4ccc(OC(C)(C)C)cc4)ccc3[nH]1)CC2 |  |  |
| 137.6 | COc1cc2c(cc1OC)CN(C(=O)c1cc3cc(-c4cc(OC)c(OC)c(OC)c4)ccc3[nH]1)CC2 |  |  |
| 26.3 | COc1cc2c(cc1OC)CN(C(=O)c1cc3cc(-c4ccccc4C)ccc3[nH]1)CC2 |  |  |
| 52.8 | COc1cc2c(cc1OC)CN(C(=O)c1cc3cc(-c4ccccc4Cl)ccc3[nH]1)CC2 |  |  |
| 56.2 | COc1ccc(-c2ccc3[nH]c(C(=O)N4CCc5cc(OC)c(OC)cc5C4)cc3c2)cc1OC |  |  |
| 204.4 | COc1cccc(-c2ccc3[nH]c(C(=O)N4CCc5cc(OC)c(OC)cc5C4)cc3c2)c1 |  |  |
| 30 | COc1cc2c(cc1OC)CN(C(=O)c1cc3cc(-c4ccc(Oc5ccccc5)cc4)ccc3[nH]1)CC2 |  |  |
| 58.1 | COc1cc2c(cc1OC)CN(C(=O)c1cc3cc(-c4cccc(C)c4)ccc3[nH]1)CC2 |  |  |
| 112.7 | COc1ccc(-c2ccc3[nH]c(C(=O)N4CCc5cc(OC)c(OC)cc5C4)cc3c2)c(OC)c1 |  |  |
